This is an account of results in publication PMC11874195, “Structural requirements of KAI2 ligands for activation of signal transduction” (Proceedings of the National Academy of Sciences of the …, 2025).

By IC50 is commonly meant the concentration that inhibits the measured activity by half.

In assay [1] the target is T1, KAI2 (Arabidopsis thaliana, UniProt Q9SZU7).
T1 sequence (Q9SZU7 1-270): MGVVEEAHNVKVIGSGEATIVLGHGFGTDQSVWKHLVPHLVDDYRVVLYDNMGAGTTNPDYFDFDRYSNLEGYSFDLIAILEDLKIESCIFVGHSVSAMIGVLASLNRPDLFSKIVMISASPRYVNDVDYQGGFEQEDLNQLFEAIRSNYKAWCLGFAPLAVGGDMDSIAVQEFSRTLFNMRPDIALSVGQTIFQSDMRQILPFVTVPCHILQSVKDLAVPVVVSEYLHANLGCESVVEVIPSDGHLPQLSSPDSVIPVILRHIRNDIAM
Nature of the assay: biochemical. Set-up: Competitive inhibition of dYLG (0.5 uM) hydrolysis by purified recombinant KAI2, fluorescence read-out. The note with it: 0.5 uM dYLG substrate, 10 min. As for the experimental part: The purified KAI2 (1 µg) was incubated with dYLG (0.5 µM) in the absence or presence of dMGer analogs for 10 min. Fluorescence intensity was measured using the Varioskan LUX plate reader (Thermo Fisher Scientific), with excitation and detection wavelengths of 480 and 520 nm, respectively. The IC50 values were calculated using the Enzyme Kinetics module of the SigmaPlot 14 program. Additional detailed methods are described in SI Appendix, Materials and Methods. To produce KAI2 protein, KAI2 cDNA was cloned into the pCold II vector, and KAI2 protein was expressed and purified as previously described(5). Briefly, the plasmid was transformed into BL21, the resulting transformant cells were precultured overnight in 2.5 mL LB medium and then cells were grown in 200 mL TB medium at 35 °C to an OD600 ~0.6. Protein expression was induced by IPTG addition, and inductions were conducted at 16 °C for 20 h. Cells were harvested and then suspended in the protein extraction buffer (50 mM Tris-HCl pH 8.0, BugBuster protein extraction reagent, and 20U of Benzonase, and the constituent proteins were purified by affinity column chromatography. The purified KAI2 (1 µg) was incubated with dYLG (0.5 µM) in the absence or presence of dMGer analogs for 10 min. We first conducted competitive inhibition assays to determine whether the carba-dMGers could bind to the ligand binding pocket of KAI2. In these assays, a profluorescent probe, desmethyl-Yoshimulactone green (dYLG), was used as a substrate, and the KAI2 binding activity was assessed by the inhibitor concentrations necessary to halve the response (IC50) for fluorophore formation. […] Differential scanning fluorimetry (DSF) assays were also performed to evaluate the effect of the dMGer analogs on KAI2 destabilization. In the DSF assay, ligand–protein interactions are monitored by changes in the melting temperature (Tm); effective agonists, such as GR24^ent^-5DS and dGR24^ent^-5DS, lower the Tm value, that is, thermally destabilize the KAI2 protein ([15], [35]).

In assay [2] the target is T1, KAI2. The assay can be described thus: competitive dYLG hydrolysis assay with purified KAI2; also DSF and cleavage kinetics (K1/[…] =[…]). The assay is classed as biochemical.
Assay [3] deals with T1, KAI2. Nature of the assay: X-ray crystal structure at […] Å (soak); also dYLG competition IC50 and DSF. Format: biochemical.
Assay [4] concerns the target T1, KAI2. Nature of the assay: competitive dYLG hydrolysis assay with purified KAI2; also DSF (Tm […] to […] °C) and HPLC hydrolysis (K1/[…] =[…]). The assay is classed as biochemical.

For `O=C1C=C[C@@H](Cc2ccc(-c3ccccc3)cc2[N+](=O)[O-])O1` [(−)-6′-carba-dMGer], the IC50 in assay [1] turned out to be 11 µM.

Consider `O=C1C=C[C@@H](Oc2ccc(-c3ccccc3)cc2[N+](=O)[O-])C1` [(−)-1′-carba-dMGer], for which, in assay [1], the IC50 worked out at 152 µM.

On to `O=C1C=C[C@H](Oc2ccc(-c3ccccc3)cc2[N+](=O)[O-])C1` [(+)-1′-carba-dMGer], for which, in assay [2], the IC50 turned out to be 78 µM.

`O=C1C=C[C@H](Cc2ccc(-c3ccccc3)cc2[N+](=O)[O-])O1` [(+)-6′-carba-dMGer]: the concentration for half-maximal inhibition (IC50) in assay [3] was found to be 2.5 µM.

With `O=C1C=C[C@H](Oc2ccc(-c3ccccc3)cc2[N+](=O)[O-])O1` [(+)-dMGer], in assay [4], the IC50 amounted to 0.16 µM.

As to `O=C1CC(CCc2ccccc2Br)O1` (stereo not shown) [2Br-PEO, 4-(2-bromophenethyl)oxetan-2-one], the IC50 in assay [1] was 0.22 µM.

With `O=C1C=C[C@@H](Oc2ccc(-c3ccccc3)cc2[N+](=O)[O-])O1` [(−)-dMGer], the IC50 in assay [1] was found to be 3.6 µM.
